Patent publication US20090280166A1, “FERRITIN AS A THERAPEUTIC TARGET IN ABNORMAL CELLS” (The Penn State Research Foundation, priority 2005, published 2009)
Entries after “also recorded” stand apart in the source; their conditions may differ.

What was measured:
H-ferritin = assay: Ferritin in nuclear and cytoplasmic fractions after DFO, alloxan and FAC treatments (Western blot); type: cell-based, human; conditions: SW1088 cells
Excerpt: FIGS. 9A-9C show nuclear import of ferritin is inhibited by alloxan, whereas cytoplasmic levels of ferritin are not affected. Under resting conditions, SW1088 cells contain ferritin in both nuclear and cytoplasmic compartments. […] The reappearance of ferritin in cytoplasmic and nuclear compartments after DFO treatment (alone) or treatment with DFO+alloxan is affected by the presence of alloxan (alx) and/or FAC in the culture medium. FIG. 9A is a schematic illustration of the experimental procedure, showing the time course of changes in culture conditions. FIG. 9B is a scan of Western blots of nuclear (N) and cytoplasmic (C) extracts of SW1088 cells, resolved by SDS/PAGE. Samples of the nuclear extract contained 20 μg of total protein, whereas samples of the cytoplasmic extract contained […] of total protein. Ferritin was detected with HS-59 mouse monoclonal antibody and horseradish peroxidase-conjugated goat anti-mouse IgG. Lane a, extracts from cells cultured in medium containing 100 μM DFO; lane b, extracts of cells cultured in normal medium; lane c, extracts of cells cultured in 100 μM FAC; lane d, extracts of cells cultured in 100 μM DFO+1 mM alloxan; lane e, extracts of cells cultured in normal medium supplemented with 1 mM alloxan; lane f, extracts of cells cultured in medium supplemented with 100 μM FAC+1 mM alloxan. FIG. 9C is a graph showing a summary of ferritin contents. The relative amounts of ferritin in the nuclear (black bars) and cytoplasmic (striped bars) fractions were measured after an initial treatment with DFO alone or DFO+[…] and a subsequent culture in the presence of DFO alone, normal medium, medium supplemented with FAC, medium supplemented with DFO+alloxan, normal medium+alloxan or normal medium+FAC and alloxan. The relative amounts of ferritin are normalized to the amount of ferritin in the corresponding fractions before the initial DFO treatment.
DFO and alloxan treatments: The iron chelator DFO was used to examine the effect of iron chelation on ferritin localization in the nuclei of astrocytoma cells. Cells were cultured in the presence of 100 μM DFO for 72 h. Alloxan, an inhibitor of O-glycosylation, was used in astrocytoma cell cultures at final concentrations of 0.1 and 1.0 mM. Six cultures were established in parallel and allowed to reach 80% confluence. The first three were treated with 100 μM DFO for 72 h, then rinsed in Hanks balanced salt solution to remove the free DFO and returned to standard medium alone or to a medium containing 0.1 mM FAC (ferric ammonium citrate) or 0.1 mM DFO. After these treatments, culturing was continued for 24 h. Another set of three cultures were treated with 100 μM DFO+1 mM alloxan for 72 h. The cells were rinsed in Hanks balanced salt solution to remove free reagents and returned to standard medium containing 1 mM alloxan or a medium containing 0.1 mM FAC+[…] or a medium containing 100 μM DFO+1 mM alloxan. After these treatments, the culturing was continued for 24 h. At the end of the culture period, cells were harvested and nuclear and cytosolic fractions were prepared as described below.
Nuclear and cytosolic fractions: Plated astrocytoma cells were rinsed in Hanks balanced salts, trypsinized and the cells were collected by centrifugation (800 g for 10 min). The pelleted cells were rinsed twice in ice-cold PBS buffer [0.01 M sodium phosphate (pH 7.4 at 25° C.), 138 mM NaCl and 2.7 mM KCl] and collected by centrifugation. The cell pellets were resuspended in 20 vol. of 10 mM Hepes (pH 7.9 at 25° C.), 1.5 mM MgCl2, 10 mM NaCl and 0.5 mM DTT (dithiothreitol) containing the following protease inhibitors: AEBSF (1 mM), aprotinin (0.8 μM), leupeptin (20 μM), bestatin (40 μM), pepstatin (15 μM) and E-64 (14 μM). Cell suspensions were incubated in ice for 30 min and collected by centrifugation. […]

[1] = Cell viability assay (MTT) of alloxan-treated cells; type: cell-based, human; conditions: human, SW1088 astrocytoma cells, 1 mM alloxan, read-out: cells remaining viable (MTT)
Protocol: (§1) FIG. 10 is a graph showing alloxan inhibits protein O-glycosylation in SW1088 human astrocytoma cells. Cells were grown in triplicate independent cultures in the presence of 0, 100, 500 μM and 1 mM concentrations of alloxan. Aliquots of whole cell lysates from each culture were applied to a nitrocellulose membrane using a vacuum slot blot device. The membrane was blocked in a 5% solution of non-fat dry milk at 21±1° C. for 1 h and incubated overnight with mouse monoclonal anti-O-GlcNAc antibody. Immunocomplexes were detected and quantified. As an internal control for this assay, membrane loadings of 1 (♦), 5 (▪) and 10 (▴) μg of total protein were tested and they gave similar responses to changes in the concentration of alloxan in the original cultures.
(§2) Cell viability assay: Cell viability measurement was performed using the reagent 3-(4,5-dimethylthiazol-2-yl)-2,5-diphenyl-2H-tetrazolium bromide (MTT), obtained from Roche Applied Science (Indianapolis, Ind., U.S.A.). The assay was performed according to the manufacturer's instructions.
(§3) The effect of alloxan on ferritin redistribution is probably due to its influence on protein glycosylation or due to some other currently unknown effect. […] The cells were then harvested and total soluble proteins were analyzed by slot blot for O-glycosylation.

[2] = test system: SW1088 human astrocytoma cells; assay: as above; type: cell-based; conditions: alloxan up to 1.0 mM, 96 h
Protocol: as §1, §2, §3

[3] = biological target: recombinant human H-ferritin (rH-ferritin) (Homo sapiens, UniProt P02794); assay: Supercoil relaxation assay for iron release from ferritin; type: biochemical; conditions: rH-ferritin with or without 1 mM alloxan
recombinant human H-ferritin (rH-ferritin), sequence (P02794 whole entry): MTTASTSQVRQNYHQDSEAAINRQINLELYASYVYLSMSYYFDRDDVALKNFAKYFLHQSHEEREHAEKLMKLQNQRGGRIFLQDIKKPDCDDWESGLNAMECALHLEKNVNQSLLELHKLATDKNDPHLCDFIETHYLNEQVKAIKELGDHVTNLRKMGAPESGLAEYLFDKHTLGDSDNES
Protocol: Supercoil-relaxation assays were performed with pUC19 plasmid DNA (0.5 μg/assay). FIG. 11A is a scan showing electrophoretic profiles of pUC19 DNA incubated in the presence of recombinant H-ferritin (lanes a-e), recombinant H-ferritin+1 mM alloxan (lanes f-j) and 1 mM alloxan alone (lanes k-o). Reaction times were as indicated. Lane p, a sample of the superhelical pUC19 DNA that was not treated with ferritin. Band assignments: R, relaxed circle form; SC, superhelical topoisomers. FIG. 11B is a graph showing the mole fraction of superhelical DNA as a function of the reaction time for samples containing rH-ferritin (♦), rH-ferritin+1 mM alloxan (▪) and 1 mM alloxan alone (▴). Error bars represent S.D. values.
Supercoil relaxation assay: DNA backbone breakage was detected using a superhelical DNA relaxation assay (Tachon, P. (1989) Free Radical Res. Commun. 7, 1-10; Crowe, A. and Morgan, E. H. (1992) Brain Res. 592, 8-16). The reaction mixtures (30 μl) contained covalently closed circular pUC19 DNA (0.5 μg; Sigma) dissolved in 10 mM Hepes (pH 7.5), 50 mM NaCl, 2.5 mM MgCl2 and 2.5 mM DTT. […] The mole fractions of superhelical and relaxed forms were measured by densitometry of photographic negatives of the gels after staining with 0.5 μg/ml ethidium bromide. […]

[4] = test system: protein O-glycosylation in SW1088 human astrocytoma cells; assay: Detection of O-glycosylated proteins by slot blot with anti-O-GlcNAc antibody; type: cell-based; conditions: SW1088 cells, 0, 0.1, 0.5 and 1.0 mM alloxan for 96 h
Protocol: as §1, with “As an internal control for this assay, membrane loadings of 1 (♦), 5 (▪) and 10 (▴) μg of total protein were tested and they gave similar responses to changes in the concentration of alloxan in the original cultures.” left out
Detection of glycosylated proteins: SW1088 cultures were treated with different concentrations of alloxan for 96 h. […] Protein concentrations were measured and aliquots containing 1, 5 and 10 μg of total cell proteins were applied in triplicate to a 0.2 μm nitrocellulose membrane (Amersham Biosciences). […] Immunocomplexes were detected using peroxidase-conjugated goat anti-mouse IgG (Sigma) and visualized with the ECL+kit (Amersham Biosciences). […]
as §3

primary rat astrocytes = assay: Longevity of transfected astrocytes (MTT); type: cell-based
Protocol: FIG. 15 is a graph showing the results of the longevity of transfected astrocytes versus control. Cells were transfected and then plated at equal density.
Cells were transfected and then plated at equal density. The longevity experiments were performed in two ways. First, cell viability was monitored in cultures in which the media was changed every seven days. In the second experiment, the media was not changed for 30 days to test nutrient deprivation. An MTT assay was performed on randomly selected cell cultures from 24 well plates every two weeks to monitor cell viability. […] The non-transfected astrocytes, however, die at an increased rate compared to the ferritin transfected cells. We have continued the study out to five months on the transfected cells, but none of the non-transfected cells are alive.
Thirdly, the non-NLS ferritin translocated to the nucleus over time.

rat primary astrocytes = assay: Cytotoxicity of iron compound TMHF on transfected astrocytes (MTT); type: cell-based; conditions: three concentrations of TMHF
Protocol: FIG. 16 is a graph showing the cytotoxicity profile of stress factors on rat primarily astrocytes transfected with NLS and non-NLS H ferritin construct. Cytotoxicity was determined by MTT assay after treatment with three different concentrations of soluble iron compound 3,5,5-trimethyl (hexanoyl) ferrocene (TMHF). A total of 12 trials were run in triplicate for each sample and the grand mean and SE are reported.
Cytotoxicity was determined by MTT assay after treatment with three different concentrations of soluble iron compound 3,5,5-trimethyl (hexanoyl) ferrocene (TMHF). A total of 12 trials were run in triplicate for each sample and the grand mean and SE are reported. […] Other common stressors (hydrogen peroxide, cytokines, hypoxia) will also be examined.

[5] = 100 μM DFO+1 mM alloxan in the initial growth period, then fresh medium

Molecule: CC(=O)N(O)CCCCCNC(=O)CCC(=O)N(O)CCCCCNC(=O)CCC(=O)N(O)CCCCCN [DFO, desferoxamine]
- ferritin content in nuclear and cytoplasmic compartments (H-ferritin; 100 μM DFO): significantly decreases ferritin content in both compartments

Molecule: O=C1NC(=O)C(=O)C(=O)N1 [alloxan]
- viability at 96 h, 1 mM [1]: 87 ± 3%
- effect on cell viability [2]: did not affect cell viability; also recorded: without significant effects on cell viability
- iron release from ferritin (DNA nicking of pUC19) [3]: does not effect the rate or amount of iron release from ferritin; also recorded: does not cause a significant release of iron from ferritin
- total amount of O-glycosylated protein [4]: decreases the total amount of O-glycosylated protein in a dose-dependent manner
- cytoplasmic ferritin after DFO treatment (reappearance) (H-ferritin; [5]): remained essentially unchanged
- reappearance of nuclear ferritin after DFO treatment (H-ferritin; [5]): inhibited
- cytoplasmic ferritin after DFO treatment (reappearance) (H-ferritin; 100 μM DFO+1 mM alloxan in the initial growth period, then fresh medium, listed as Alloxan): no effect
- FAC-induced increase in nuclear ferritin (H-ferritin; 100 μM FAC+1 mM alloxan): blocked
- FAC-induced increase of cytoplasmic ferritin (H-ferritin; 100 μM FAC+1 mM alloxan): not the increase of cytoplasmic ferritin
- disappearance of ferritin from the nuclear fraction when DFO is added (H-ferritin; DFO + alloxan): does not prevent

Molecule: ferric ammonium citrate [FAC]
- increase in nuclear and cytoplasmic ferritin contents relative to levels found in untreated cells (H-ferritin; 100 μM FAC added to standard medium after DFO): approx. 200%

Molecule: ferritin
- survival of transfected cells, media changed (primary rat astrocytes; media changed every seven days): three months
- survival of transfected cells, media not changed (primary rat astrocytes; nutrient deprivation, media not changed): 30 days
- ability of astrocytes to withstand iron induced stress (rat primary astrocytes): increases the ability of primary astrocytes to withstand iron induced stress
